PubChem BioAssay (NCI)
Values joined by “and” are separate entries in the source; they are usually repeats but may differ in a detail not shown here. Equal entries are not always repeated.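 Interpolation was linear, between the two tested concentrations surrounding the appropriate level; five concentrations were tested over 48 hours in 96-well plates. GI50 = concentration required for 50% inhibition of growth. TGI marks complete inhibition of growth.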

What was measured:
Test in all cases: inhibition of tumour cell growth, NCI panel, 48 h
SR leukemia = tested on: SR leukemia
MCF7 breast = tested on: MCF7 breast
HS 578T breast = tested on: HS 578T breast
OVCAR-3 ovarian = tested on: OVCAR-3 ovarian
A498 renal = tested on: A498 renal
SK-MEL-2 melanoma = tested on: SK-MEL-2 melanoma
LOX IMVI melanoma = tested on: LOX IMVI melanoma
UACC-62 melanoma = tested on: UACC-62 melanoma
OVCAR-4 ovarian = tested on: OVCAR-4 ovarian
MOLT-4 leukemia = tested on: MOLT-4 leukemia

| Compound | GI50 (SR leukemia) | TGI (SR leukemia) | GI50 (MCF7 breast) | TGI (MCF7 breast) | GI50 (HS 578T breast) | TGI (HS 578T breast) | GI50 (OVCAR-3 ovarian) | TGI (OVCAR-3 ovarian) | GI50 (A498 renal) | TGI (A498 renal) | GI50 (SK-MEL-2 melanoma) | TGI (SK-MEL-2 melanoma) | GI50 (LOX IMVI melanoma) | TGI (LOX IMVI melanoma) | GI50 (UACC-62 melanoma) | TGI (UACC-62 melanoma) | GI50 (OVCAR-4 ovarian) | TGI (OVCAR-4 ovarian) | TGI (MOLT-4 leukemia) | GI50 (MOLT-4 leukemia) |
| --- | --- | --- | --- | --- | --- | --- | --- | --- | --- | --- | --- | --- | --- | --- | --- | --- | --- | --- | --- | --- |
| COc1ccc(C2=CC(c3ccc(Oc4ccnc5cc(Cl)ccc45)c(OC)c3)c3c(nc(OC)[nH]c3=O)N2)cc1 (stereo not drawn) | 2.91 µM | 64.6 µM | 3.56 µM | > 100 µM | 7.04 µM | > 100 µM | 6.46 µM | > 100 µM | 48 µM | > 100 µM | 31.6 µM | > 100 µM | 4.04 µM | 67.2 µM | 4.39 µM | 35.7 µM | 6.69 µM | > 100 µM | – | – |
| CCOC(=O)C12CCSC1C1(C#N)C(C#N)=CC2(N=P(c2ccccc2)(c2ccccc2)c2ccccc2)n2c(=O)n(-c3ccccc3)c(=O)n21 (stereo not drawn) | – | – | – | – | – | – | – | 89.8 µM | – | > 100 µM | – | > 100 µM | – | > 100 µM | – | 77.9 µM | – | 79.8 µM | 88.1 µM | – |
| CSc1c(S(C)=O)[nH]c2cc(Br)cc(Br)c12 (stereo not drawn) | – | – | – | – | – | – | – | 45 µM | – | 62.1 µM | – | – | – | 31.9 µM | – | 39.3 µM | – | – | 61.5 µM | – |
| COc1ccc(C(=O)Nc2ccc(S(=O)(=O)NCC(=O)O)cc2)cc1 | – | – | – | – | – | – | – | > 100 µM | – | > 100 µM | – | > 100 µM | – | > 100 µM | – | > 100 µM | – | > 100 µM | > 100 µM | – |
| O=C1OCC2=C1C(c1cccc(C(F)(F)F)c1)c1cc3c(cc1N2CCO)OCO3 (stereo not drawn) | – | – | 0.415 µM | > 50 µM | 3.01 µM | > 50 µM | 1.32 µM | > 50 µM | 1.08 µM | 10.9 µM | 1.43 µM | > 50 µM | 2.02 µM | > 50 µM | 1.14 µM | > 50 µM | 2.49 µM | > 50 µM | > 50 µM | 1.02 µM |
| CC1(C(=O)NCCN(CCNC(=O)C2(C)CC3(C)CC(C)(C2)C(=O)NC3=O)CCNC(=O)C2(C)CC3(C)CC(C)(C2)C(=O)NC3=O)CC2(C)CC(C)(C1)C(=O)NC2=O (stereo not drawn) | – | > 100 µM | – | – | – | – | – | > 100 µM | – | > 100 µM | – | > 100 µM | – | – | – | > 100 µM | – | > 100 µM | > 100 µM | – |
| Fc1c[c-]c(-c2ccccn2)c(F)c1.[CH3-].[Pt+2].c1ccc([PH+](c2ccccc2)c2ccccn2)cc1 | 0.786 µM | 7.05 µM | 1.22 µM | 3.23 µM | 1.96 µM | 5.89 µM | 1.44 µM | 2.88 µM | 1.48 µM | 4.06 µM | 2.22 µM | 5.86 µM | 1.28 µM | 2.69 µM | – | – | 1.57 µM | 7.06 µM | > 100 µM | 1.04 µM |
| C=CC(=O)NCCOc1cccc(Nc2cc(NCCCNC(=O)C3CCC3)c(Br)cn2)c1 | – | – | 0.781 µM | 10.3 µM | 0.567 µM | 1.7 µM | 0.836 µM | 3.75 µM | 0.52 µM | 1.8 µM | 2.62 µM | 6.55 µM | 0.776 µM | 5.4 µM | 2.58 µM | 6.87 µM | 1.26 µM | 10.7 µM | > 25 µM | 1.37 µM |
| Cc1ccc(/C=N/NS(=O)(=O)c2ccccc2)cc1 | – | > 100 µM | – | – | – | – | – | > 100 µM | – | > 100 µM | – | > 100 µM | – | > 100 µM | – | > 100 µM | – | > 100 µM | > 100 µM | – |
| COc1cc(-c2nc(-c3nnc(-c4ccc(F)c(Cl)c4)o3)c3ccccn23)cc(OC)c1OC | – | – | – | – | 2.51 µM | 29.2 µM | 2.76 µM | 8.69 µM | 1.55 µM | 6.76 µM | 2.27 µM | 5.59 µM | 3.83 µM | > 100 µM | – | – | – | – | > 100 µM | > 100 µM |
| COC1=C(C)C(=O)C2=C(C1=O)C(CO)N1C(C#N)C3CC4C(C1C2N1CCOC41)N3C (stereo not drawn) | 0.00159 µM and 0.00538 µM | – | – | – | – | – | – | 0.168 µM and 0.0383 µM and < 0.02 µM | – | – | – | 0.0451 µM and 0.038 µM and 0.0364 µM | 0.00204 µM | – | – | – | 0.128 µM and 0.0409 µM and 0.0516 µM | 0.728 µM and 0.218 µM and 0.332 µM | – | – |
| O=C(O)c1c([N+](=O)[O-])cc(C(F)(F)F)cc1[N+](=O)[O-] | – | > 100 µM | – | – | – | – | – | > 100 µM | – | > 100 µM | – | > 100 µM | – | > 100 µM | – | – | – | > 100 µM | > 100 µM | – |
| COc1cc(-c2cc(-c3nc4cc(Cl)c(Cl)cc4[nH]3)[nH]n2)cc(OC)c1OC | 3.89 µM | 20.6 µM | 2.79 µM | 11.5 µM | 4.53 µM | > 100 µM | 4.05 µM | 15.4 µM | 4.21 µM | 28.3 µM | – | – | – | – | 1.94 µM | 4.31 µM | 2.21 µM | 6.77 µM | 6.29 µM | 2.49 µM |
| Clc1ccccc1C1N2CCCCC2[C@@H]2c3[nH]c4ccccc4c3CCN12 (stereo partly drawn) | – | – | – | – | – | – | – | 32.6 µM | – | 30.3 µM | – | 34.1 µM | – | – | – | 30.2 µM | – | 44.4 µM | 82.6 µM | – |
| O=C1c2ccccc2C(=O)c2c(NC(=O)C(Cl)CCl)cccc21 (stereo not drawn) | – | 0.347 µM | – | 2.47 µM | – | > 100 µM | – | 23.1 µM | – | 36.2 µM | – | 12.2 µM | – | – | – | 33.9 µM | – | 23.3 µM | – | – |
| C/C=C/C(=O)[C@@H](O)C(C)C | – | > 100 µM | – | – | – | – | – | > 100 µM | – | – | – | > 100 µM | – | – | – | > 100 µM | – | > 100 µM | > 100 µM | – |
| CN(C)C(=S)/N=c1\ssc(=S)n1-c1ccccc1 | – | – | – | – | – | – | – | – | – | 57.7 µM | – | 21.6 µM | – | – | – | 30.6 µM | – | 29.4 µM | – | – |
| COc1ccc(N2CCN(CN3CCN(c4ccc(OC)cc4)C3)C2)cc1 | – | – | 69.5 µM | > 100 µM | > 100 µM | > 100 µM | > 100 µM | > 100 µM | 1.82 µM | > 100 µM | > 100 µM | > 100 µM | 41.3 µM | > 100 µM | > 100 µM | > 100 µM | > 100 µM | > 100 µM | 37.2 µM | 12.3 µM |
| C=CCC(N[C@@H](CO)c1ccccc1)c1ccccn1 (stereo partly drawn) | 18.3 µM | > 100 µM | – | – | > 100 µM | > 100 µM | > 100 µM | > 100 µM | 46.8 µM | > 100 µM | > 100 µM | > 100 µM | > 100 µM | > 100 µM | > 100 µM | > 100 µM | 25.6 µM | > 100 µM | – | – |
| O=C1NC2(CCCC2)/C(=N\O)C12CCCC2 | – | > 100 µM | – | – | – | – | – | > 100 µM | – | > 100 µM | – | > 100 µM | – | > 100 µM | – | > 100 µM | – | > 100 µM | > 100 µM | – |
